This passage reports IC50 and EC50 results from ChEMBL document CHEMBL1138368, “Synthesis of thiazolone-based sulfonamides as inhibitors of HCV NS5B polymerase” (Bioorg Med Chem Lett, 2007).

In general, IC50 refers to the concentration that inhibits the measured activity by half. A high value points to weaker potency. What is called EC50 is the midpoint of the concentration-response curve. The low end stands for a more potent agent, the high end for a less potent agent.

Where only a bound is given, the exact number is not on record here.

Assay [1] is described as follows: Inhibition of HCV NS5B polymerase […]. Further details: species or system Hepacivirus hominis. In general terms: Replicon systems follow genome replication, usually without infectious particles.
Another assay deals with Hepatitis C virus. Briefly: Antiviral activity against HCV replicon assay. It is filed as functional, organism-based, Hepacivirus hominis.

With `CCc1ccc(/C=C2\SC(NS(=O)(=O)c3ccccc3N)=NC2=O)o1`, in assay [1], half-maximal inhibition (IC50) was put at 11 µM. Moreover, in the assay on Hepatitis C virus, the half-maximal effective concentration (EC50) is 27 µM.

`Cc1ccc(S(=O)(=O)NC2=NC(=O)/C(=C/C=C/c3ccccn3)S2)cc1` came in with an IC50 in assay [1] of 0.6 µM. The compound further returned an EC50 in the assay on Hepatitis C virus of 35 µM.

In assay [1], `Cc1ccc(S(=O)(=O)NC2=NC(=O)/C(=C/c3ccc([N+](=O)[O-])s3)S2)cc1` gave an IC50 of 4.2 µM. Further, in the assay on Hepatitis C virus, the half-maximal effective concentration (EC50) turned out to be 7 µM.

The compound `CCc1ccc(/C=C2\SC(NS(=O)(=O)c3ccccc3[N+](=O)[O-])=NC2=O)o1` registered a half-inhibitory concentration (IC50) in assay [1] of 18 µM. This compound also displayed an EC50 in the assay on Hepatitis C virus of 90 µM.

`CCCCN(C1=NC(=O)/C(=C/c2ccc(CC)o2)S1)S(=O)(=O)c1ccc(C)cc1` yielded an IC50 in assay [1] of more than 100 µM. The compound also had a half-maximal effective concentration (EC50) with Hepatitis C virus of 33 µM.

Turning to `CCc1ccc(CC2SC(NS(=O)(=O)c3ccc(C)cc3)=NC2=O)o1` (stereo not drawn), in assay [1], inhibition was half-maximal at 7.3 µM (IC50). This compound yielded a concentration for a half-maximal effect (EC50) in the assay with Hepatitis C virus of 33 µM.

Turning to `Cc1ccc(S(=O)(=O)NC2=NC(=O)/C(=C/c3ccc(C)s3)S2)cc1`, half-maximal inhibition in assay [1] (IC50) required 14 µM. This compound returned an EC50 with Hepatitis C virus of 70 µM.

The compound `Cc1ccc(S(=O)(=O)NC2=NC(=O)/C(=C/c3ccc(N4CCOCC4)cc3)S2)cc1` gave an IC50 in assay [1] of 12 µM. Moreover, it took 180 µM to reach a half-maximal effect in the assay on Hepatitis C virus (EC50).

`Cc1ccc(S(=O)(=O)NC2=NC(=O)C(Cc3ccco3)S2)cc1` (stereo not drawn): the IC50 in assay [1] stood at 74 µM. In addition, the concentration giving a half-maximal response (EC50) with Hepatitis C virus came to 200 µM.

Compound `CCc1ccc(/C=C2\SC(NS(=O)(=O)c3cccs3)=NC2=O)o1` came in with a half-inhibitory concentration (IC50) in assay [1] of 8 µM. Also, it took 40 µM to reach a half-maximal effect in the assay with Hepatitis C virus (EC50).

On to `Cc1ccc(S(=O)(=O)NC2=NC(=O)/C(=C/c3cc(C)c(Cl)s3)S2)cc1`, for which 10 µM corresponded to half-maximal inhibition in assay [1] (IC50). Also, in the assay on Hepatitis C virus, the concentration for a half-maximal effect (EC50) stood at 200 µM.

Compound `CCc1ccc(/C=C2\SC(NS(=O)(=O)c3ccc(C(F)(F)F)cc3)=NC2=O)o1` had an IC50 in assay [1] of 3.2 µM. For the same compound, a half-maximal effect in the assay with Hepatitis C virus (EC50) was put at 30 µM.

In the case of `Cc1ccc(S(=O)(=O)NC2=NC(=O)/C(=C/c3cc(C)c(C)o3)S2)cc1`, inhibition in assay [1] was half-maximal at 3.2 µM (IC50). For the same compound, the midpoint of the response in the assay on Hepatitis C virus, the EC50, lay at 200 µM.

`Cc1ccc(S(=O)(=O)NC2=NC(=O)/C(=C/c3ccc(C)o3)S2)cc1` gave an IC50 in assay [1] of 11 µM.

With `Cc1ccc(S(=O)(=O)NC2=NC(=O)/C(=C/c3ccc(I)o3)S2)cc1`, the IC50 in assay [1] was 2.8 µM. Besides, in the assay with Hepatitis C virus, a half-maximal effect (EC50) was put at 38 µM.

Turning to `Cc1ccc(C(=O)NC2=NC(=O)/C(=C/c3ccc(-c4ccc(-c5csnn5)cc4)o3)S2)cc1`, the IC50 in assay [1] worked out at 11 µM. Further, the concentration giving a half-maximal response (EC50) in the assay with Hepatitis C virus came to 70 µM.

In assay [1], `Cc1ccc(S(=O)(=O)NC2=NC(=O)C(Cc3ccc(Br)o3)S2)cc1` (stereo not drawn) had an IC50 of 40 µM. A half-maximal effect in the assay on Hepatitis C virus (EC50) was put at 64 µM.

Compound `Cc1ccc(S(=O)(=O)NC2=NC(=O)/C(=C/c3ccc(-c4csnn4)cc3)S2)cc1` came in with a half-maximal inhibitory concentration (IC50) in assay [1] of 1.4 µM. Further, the EC50 in the assay on Hepatitis C virus turned out to be 20 µM.

As to `CCCCCCN(C1=NC(=O)/C(=C/c2ccc(CC)o2)S1)S(=O)(=O)c1ccc(C)cc1`, in assay [1], the IC50 is more than 100 µM. This compound displayed a half-maximal effective concentration (EC50) in the assay on Hepatitis C virus of 70 µM.

Take `CCN(CC)c1ccc(/C=C2\SC(NS(=O)(=O)c3ccc(C)cc3)=NC2=O)cc1`: the half-inhibitory concentration (IC50) in assay [1] was more than 100 µM. In the assay on Hepatitis C virus, this compound gave an EC50 of 90 µM.

With `Cc1ccc(S(=O)(=O)NC2=NC(=O)/C(=C/c3ccc(-n4ccnc4)cc3)S2)cc1`, the 50% inhibitory concentration (IC50) in assay [1] was more than 100 µM. For the same compound, the EC50 in the assay with Hepatitis C virus is 60 µM.

`Cc1ccc(S(=O)(=O)NC2=NC(=O)/C(=C/C=C/c3ccco3)S2)cc1`: the IC50 in assay [1] came to 5 µM. The compound also displayed a 50% effective concentration (EC50) with Hepatitis C virus of 55 µM.

With `Cc1ccc(C(=O)NC2=NC(=O)/C(=C/c3ccc(-c4[nH]cnc4C)o3)S2)cc1`, the IC50 in assay [1] was more than 100 µM. In the assay with Hepatitis C virus, this compound returned a half-maximal effective concentration (EC50) of 220 µM.

In assay [1], `CCCCCCCN(C1=NC(=O)/C(=C/c2ccc(CC)o2)S1)S(=O)(=O)c1ccc(C)cc1` returned a half-maximal inhibitory concentration (IC50) of more than 100 µM. Besides, in the assay with Hepatitis C virus, a half-maximal effect (EC50) was put at 90 µM.

In assay [1], `Cc1ccc(S(=O)(=O)NC2=NC(=O)/C(=C/c3ccco3)S2)cc1` showed an IC50 of 11 µM. The half-maximal effective concentration (EC50) with Hepatitis C virus came out at 60 µM.

Compound `Cc1ccc(S(=O)(=O)NC2=NC(=O)C(CCCc3ccccn3)S2)cc1` (stereo not drawn) showed a 50% inhibitory concentration (IC50) in assay [1] of more than 100 µM. The compound also returned a concentration giving a half-maximal response (EC50) with Hepatitis C virus of 180 µM.

`CCCCCN(C1=NC(=O)/C(=C/c2ccc(CC)o2)S1)S(=O)(=O)c1ccc(C)cc1` yielded an IC50 in assay [1] of more than 100 µM. Besides, the concentration giving a half-maximal response (EC50) in the assay on Hepatitis C virus came to 55 µM.

Turning to `CCc1ccc(/C=C2\SC(NS(=O)(=O)c3ccccc3NC(C)=O)=NC2=O)o1`, half-maximal inhibition in assay [1] (IC50) was put at 34 µM. Moreover, the midpoint of the response in the assay with Hepatitis C virus, the EC50, lay at 200 µM.

With `CCc1ccc(/C=C2\SC(NS(=O)(=O)c3ccc([N+](=O)[O-])cc3)=NC2=O)o1`, in assay [1], the IC50 was determined as 3.2 µM. Also, in the assay with Hepatitis C virus, the half-maximal effective concentration (EC50) is 200 µM.

In the case of `Cc1ccc(C(=O)NC2=NC(=O)/C(=C/c3ccc(C)o3)S2)cc1`, the half-inhibitory concentration (IC50) in assay [1] was 16 µM. In the assay with Hepatitis C virus, this compound registered an EC50 of 60 µM.

`Cc1ccc(S(=O)(=O)NC2=NC(=O)/C(=C/c3ccc(-c4ccccc4)o3)S2)cc1` registered a half-maximal inhibitory concentration (IC50) in assay [1] of 5.5 µM. Moreover, in the assay with Hepatitis C virus, the EC50 was 55 µM.

The compound `CCc1ccc(/C=C2\SC(NC(=O)c3ccc(C)cc3)=NC2=O)o1` showed an IC50 in assay [1] of 13 µM. In the assay on Hepatitis C virus, this compound yielded an EC50 of 200 µM.

For the compound `Cc1ccc(S(=O)(=O)NC2=NC(=O)/C(=C/c3ccc(-n4cncn4)cc3)S2)cc1`, the half-maximal inhibitory concentration (IC50) in assay [1] is 32 µM. The compound also came in with an EC50 in the assay on Hepatitis C virus of 100 µM.

In turn, `Cc1ccc(C(=O)NC2=NC(=O)/C(=C/c3ccc(-c4nccs4)o3)S2)cc1` yielded an IC50 in assay [1] of 44 µM. This compound also had an EC50 in the assay on Hepatitis C virus of 120 µM.

`Cc1ccc(S(=O)(=O)NC2=NC(=O)/C(=C/c3cccs3)S2)cc1` showed a concentration for half-maximal inhibition (IC50) in assay [1] of 12 µM. Further, a half-maximal response with Hepatitis C virus (EC50) required 80 µM.

`Cc1ccc(S(=O)(=O)NC2=NC(=O)/C(=C/c3ccc(-n4cccn4)cc3)S2)cc1`: the half-maximal inhibitory concentration (IC50) in assay [1] worked out at 10 µM. It took 70 µM to reach a half-maximal effect in the assay on Hepatitis C virus (EC50).

In assay [1], `Cc1ccc(C(=O)NC2=NC(=O)/C(=C/c3cccs3)S2)cc1` yielded an IC50 of 33 µM. Also, in the assay on Hepatitis C virus, the half-maximal effective concentration (EC50) amounted to 100 µM.

As to `CCc1ccc(/C=C2\SC(NS(=O)(=O)c3ccc(C)cc3)=NC2=O)o1`, the half-inhibitory concentration (IC50) in assay [1] is 1.4 µM. In addition, the EC50 in the assay on Hepatitis C virus came to 25 µM.

As for `Cc1ccc(S(=O)(=O)NC2=NC(=O)C(Cc3ccc(I)o3)S2)cc1` (stereo not drawn), the concentration for half-maximal inhibition (IC50) in assay [1] was 15 µM. The response in the assay on Hepatitis C virus was half-maximal at 40 µM (EC50).

As for `Cc1ccc(S(=O)(=O)NC2=NC(=O)/C(=C/c3ccc(N4CCCC4)cc3)S2)cc1`, in assay [1], the half-maximal inhibitory concentration (IC50) is 1.4 µM. The compound further returned a concentration for a half-maximal effect (EC50) with Hepatitis C virus of 25 µM.

The compound `Cc1ccc(S(=O)(=O)NC2=NC(=O)/C(=C/c3ccc(Br)o3)S2)cc1` gave an IC50 in assay [1] of 2.7 µM. In the assay with Hepatitis C virus, this compound returned an EC50 of 50 µM.

On to `Cc1ccc(S(=O)(=O)NC2=NC(=O)/C(=C/c3ccc(-c4nc(C(C)(C)C)cs4)cc3)S2)cc1`, for which the IC50 in assay [1] was determined as 4.9 µM. It took 9 µM to reach a half-maximal effect in the assay with Hepatitis C virus (EC50).
